Assay: xn = mol fraction of the nth substance listed

CCCC[n+]1ccn(C)c1.O=S(=O)([N-]S(=O)(=O)C(F)(F)F)C(F)(F)F + CCO
Settings	electrical conductivity [S/m]	viscosity [mPa·s]
293 K, 100 kPa, x1 = 0.5784	–	20.7
293.3 K, 100 kPa, x1 = 0.4606	–	13.8
293.3 K, 100 kPa, x1 = 0.747	–	32.1
293.61 K, 100 kPa, x1 = 0.2688	–	6.37
293.61 K, 100 kPa, x1 = 1	–	61.8
293.91 K, 100 kPa, x1 = 0.2129	–	5.12
293.91 K, 100 kPa, x1 = 0.4606	–	13.5
293.91 K, 100 kPa, x1 = 0.6609	–	24.2
294.21 K, 100 kPa, x1 = 0.4215	–	12.22
294.21 K, 100 kPa, x1 = 0.6609	–	23.9
294.21 K, 100 kPa, x1 = 1	–	60.2
294.52 K, 100 kPa, x1 = 0.747	–	30.8
294.52 K, 100 kPa, x1 = 0.8264	–	38.5
294.52 K, 100 kPa, x1 = 1	–	59.4
294.82 K, 100 kPa, x1 = 0.4215	–	11.98
294.82 K, 100 kPa, x1 = 1	–	58.6
295.12 K, 100 kPa, x1 = 0.4215	–	11.87
295.12 K, 100 kPa, x1 = 0.747	–	30.1
295.42 K, 100 kPa, x1 = 0.2129	–	4.94
295.42 K, 100 kPa, x1 = 0.2688	–	6.11
295.42 K, 100 kPa, x1 = 0.4606	–	12.94
295.73 K, 100 kPa, x1 = 0.8264	–	36.7
296.64 K, 100 kPa, x1 = 0.2688	–	5.94
296.64 K, 100 kPa, x1 = 0.4606	–	12.48
296.64 K, 100 kPa, x1 = 1	–	54.1
296.94 K, 100 kPa, x1 = 0.4606	–	12.36
296.94 K, 100 kPa, x1 = 0.747	–	28.4
297.24 K, 100 kPa, x1 = 0.2688	–	5.85
297.24 K, 100 kPa, x1 = 0.4215	–	11.09
297.24 K, 100 kPa, x1 = 0.5784	–	18.17
297.24 K, 100 kPa, x1 = 0.747	–	28.1
297.55 K, 100 kPa, x1 = 0.8264	–	34.1
297.85 K, 100 kPa, x1 = 1	–	51.4
298 K, 100 kPa, x1 = 0.02	0.415	–
298 K, 100 kPa, x1 = 0.03	0.5634	–
298 K, 100 kPa, x1 = 0.05	–	1.663
298 K, 100 kPa, x1 = 0.06	0.8844	–
298 K, 100 kPa, x1 = 0.07	0.958	–
298 K, 100 kPa, x1 = 0.0999	–	2.413
298 K, 100 kPa, x1 = 0.1	1.118	–
298 K, 100 kPa, x1 = 0.1999	–	4.331
298 K, 100 kPa, x1 = 0.2	1.28	–
298 K, 100 kPa, x1 = 0.2993	–	6.629
298 K, 100 kPa, x1 = 0.3	1.216	–
298 K, 100 kPa, x1 = 0.397	–	9.56
298 K, 100 kPa, x1 = 0.4	1.09	–
298 K, 100 kPa, x1 = 0.4836	–	12.74
298 K, 100 kPa, x1 = 0.5	0.9534	–
298 K, 100 kPa, x1 = 0.6	0.8239	–
298 K, 100 kPa, x1 = 0.6978	–	23.61
298 K, 100 kPa, x1 = 0.7	0.6839	–
298 K, 100 kPa, x1 = 0.8	0.575	–
298 K, 100 kPa, x1 = 0.8001	–	30.86
298 K, 100 kPa, x1 = 0.8987	–	38.32
298 K, 100 kPa, x1 = 0.9	0.4819	–
298 K, 100 kPa, x1 = 1	–	49.7
298.15 K, 100 kPa, x1 = 0.2129	–	4.64
298.15 K, 100 kPa, x1 = 0.2688	–	5.73
298.15 K, 101 kPa, x2 = 0.1174	–	38.5
298.45 K, 100 kPa, x1 = 0.6609	–	21
298.45 K, 100 kPa, x1 = 0.747	–	27
298.76 K, 100 kPa, x1 = 0.4215	–	10.58
298.76 K, 100 kPa, x1 = 0.8264	–	32.6
299.06 K, 100 kPa, x1 = 0.2129	–	4.55
299.06 K, 100 kPa, x1 = 0.5784	–	17.18
299.06 K, 100 kPa, x1 = 0.6609	–	20.6
299.67 K, 100 kPa, x1 = 0.4606	–	11.41
299.97 K, 100 kPa, x1 = 0.2129	–	4.45
299.97 K, 100 kPa, x1 = 0.5784	–	16.72
300.27 K, 100 kPa, x1 = 0.2129	–	4.42
300.27 K, 100 kPa, x1 = 0.4215	–	10.11
300.27 K, 100 kPa, x1 = 0.747	–	25.4
300.27 K, 100 kPa, x1 = 0.8264	–	30.7
300.58 K, 100 kPa, x1 = 0.4215	–	10.02
300.88 K, 100 kPa, x1 = 0.2688	–	5.37
300.88 K, 100 kPa, x1 = 0.4215	–	9.92
301.18 K, 100 kPa, x1 = 0.2688	–	5.34
301.48 K, 100 kPa, x1 = 0.2129	–	4.3
302.7 K, 100 kPa, x1 = 0.2129	–	4.18
302.7 K, 100 kPa, x1 = 0.2688	–	5.15
302.7 K, 100 kPa, x1 = 0.747	–	23.5
302.7 K, 100 kPa, x1 = 0.8264	–	28.1
303 K, 100 kPa, x1 = 0.4606	–	10.38
303 K, 100 kPa, x1 = 0.747	–	23.2
303.3 K, 100 kPa, x1 = 0.2688	–	5.08
303.91 K, 100 kPa, x1 = 0.8264	–	26.8
304.52 K, 100 kPa, x1 = 0.4606	–	9.95
304.52 K, 100 kPa, x1 = 0.5784	–	14.59
304.52 K, 100 kPa, x1 = 1	–	39.3
304.82 K, 100 kPa, x1 = 0.2688	–	4.9
304.82 K, 100 kPa, x1 = 0.4215	–	8.85
304.82 K, 100 kPa, x1 = 0.747	–	21.9

From the CheMixHub ionic liquid set
